Tests used:
[1] = compound: C1CC(C1)(C(=O)[O-])C(=O)[O-].N.N.[Pt+2] [Carboplatin]; details: max 10 µM
Summary of the method: (§1)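 Following 24 hours at 37°C and 5% CO2, cancer cell lines in 1536-well plates with 7.5 μl DMEM/F12 or RPMI and 10% FBS were dosed for 72 hours, final DMSO typically being 0.2%. CellTiter-Glo 2.0 luminescence, scaled between blank-well and DMSO-well means, gave the viability readout. Dose responses were fitted to a two-parameter logistic curve with a non-linear mixed effects model, and the single-agent IC50 was derived from this fit.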

[2] = compound: C1CN(CCC1(C(=O)N[C@@H](CCO)C2=CC=C(C=C2)Cl)N)C3=NC=NC4=C3C=CN4 [AZD5363]; details: max 10 µM
Summary of the method: as §1

[3] = compound: C=CCn1c(=O)c2cnc(Nc3ccc(N4CCN(C)CC4)cc3)nc2n1-c1cccc(C(C)(C)O)n1 [AZD1775]; details: max 3 µM
Summary of the method: as §1

[4] = compound: CC(=O)Nc1cccc(-n2c(=O)n(C3CC3)c(=O)c3c(Nc4ccc(I)cc4F)n(C)c(=O)c(C)c32)c1 [Trametinib]; details: max 1 µM
Summary of the method: as §1

[5] = compound: CC(=O)O[C@H]1C(=O)[C@@]2(C)[C@H]([C@H](OC(=O)c3ccccc3)[C@]3(O)C[C@H](OC(=O)[C@H](O)[C@@H](NC(=O)c4ccccc4)c4ccccc4)C(C)=C1C3(C)C)[C@]1(OC(C)=O)CO[C@@H]1C[C@@H]2O [Paclitaxel]; details: max 3 µM
Summary of the method: as §1

[6] = compound: CC(=O)c1c(C)c2cnc(Nc3ccc(N4CCNCC4)cn3)nc2n(C2CCCC2)c1=O [Palbociclib]; details: max 10 µM
Summary of the method: as §1

[7] = compound: CC(C)n1c(=O)n(C)c2cnc3cc(F)c(-c4ccc(OCCCN5CCCCC5)nc4)cc3c21 [AZD1390]; details: max 0.3 µM
Summary of the method: as §1

[8] = compound: CC1(C)CCC(CN2CCN(c3ccc(C(=O)NS(=O)(=O)c4ccc(NCC5CCOCC5)c([N+](=O)[O-])c4)c(Oc4cnc5[nH]ccc5c4)c3)CC2)=C(c2ccc(Cl)cc2)C1 [Venetoclax]; details: max 1 µM
Summary of the method: as §1

[9] = compound: CC1=C(C(=CC=C1)Cl)NC(=O)C2=CN=C(S2)NC3=CC(=NC(=N3)C)N4CCN(CC4)CCO [Dasatinib]; details: max 2 µM
Summary of the method: as §1

[10] = compound: CC1=CN2[C@@H](C1)C=NC3=CC(=C(C=C3C2=O)OC)OCCCCCOC4=C(C=C5C(=C4)N=C[C@@H]6CC(=CN6C5=O)C)OC [SG3199]; details: max 0.001 µM
Summary of the method: as §1

[11] = compound: CCN(CCO)CCCOc1ccc2c(Nc3cc(CC(=O)Nc4cccc(F)c4)[nH]n3)ncnc2c1 [AZD2811]; details: max 1 µM
Summary of the method: as §1

[12] = compound: CCc1c2c(nc3ccc(O)cc13)-c1cc3c(c(=O)n1C2)COC(=O)[C@]3(O)CC [SN-38]; details: max 0.3 µM
Summary of the method: as §1

[13] = compound: CN(C)CCCOc1ccc(-c2ccc3ncc4c(c3c2)n(C2CCOCC2)c(=O)n4C)cn1 [AZD0156]; details: max 3 µM
Summary of the method: as §1

[14] = compound: CN(CC[C@H](CSC1=CC=CC=C1)NC2=C(C=C(C=C2)S(=O)(=O)NC(=O)C3=CC=C(C=C3)N4CCC(CC4)[C@H](C5=CC=CC=C5C6=CC=C(C=C6)Cl)O)S(=O)(=O)C(F)(F)F)CCO [AZD4320]; details: max 1 µM
Summary of the method: as §1

[15] = compound: COc1cc(Nc2ncc3c(n2)-c2ccc(Cl)cc2C(c2c(F)cccc2OC)=NC3)ccc1C(=O)O [Alisertib]; details: max 10 µM
Summary of the method: as §1

[16] = compound: COc1cc([C@@H]2c3cc4c(cc3[C@@H](O[C@@H]3O[C@@H]5CO[C@@H](C)O[C@H]5[C@H](O)[C@H]3O)[C@H]3COC(=O)[C@H]23)OCO4)cc(OC)c1O [Etoposide]; details: max 10 µM
Summary of the method: as §1

[17] = compound: COc1cc2ncnc(Nc3ccc(F)c(Cl)c3)c2cc1OCCCN1CCOCC1 [Gefitinib]; details: max 10 µM
Summary of the method: as §1

[18] = compound: COc1cccc(OCCCN)c1-c1cc(Nc2cnc(C#N)cn2)n[nH]1 [Prexasertib]; details: max 1 µM
Summary of the method: as §1

[19] = compound: COc1cccc2c1C(=O)c1c(O)c3c(c(O)c1C2=O)C[C@@](O)(C(=O)CO)C[C@@H]3O[C@H]1C[C@H](N)[C@H](O)[C@H](C)O1 [Doxorubicin]; details: max 1 µM
Summary of the method: as §1

[20] = compound: COc1nnc2ccc(N3CCC(c4ccc(OCCN5CCN(C)C(=O)[C@H]5C)cc4)CC3)nn12 [AZD5153]; details: max 1 µM
Summary of the method: as §1

[21] = compound: CS(=O)(=O)CCNCc1ccc(-c2ccc3ncnc(Nc4ccc(OCc5cccc(F)c5)c(Cl)c4)c3c2)o1 [Lapatinib]; details: max 10 µM
Summary of the method: as §1

[22] = compound: C[C@@H](Nc1cc(F)cc(F)c1)c1cc(C(=O)N(C)C)cc2c(=O)cc(N3CCOCC3)oc12 [AZD8186]; details: max 10 µM
Summary of the method: as §1

[23] = compound: C[C@@H](Oc1cc(-c2cnn(C3CCNCC3)c2)cnc1N)c1c(Cl)ccc(F)c1Cl [Crizotinib]; details: max 10 µM
Summary of the method: as §1

[24] = compound: C[C@@H](c1ccc2nccn2c1)n1nnc2ncc(-c3cnn(C)c3)nc21 [Savolitinib]; details: max 1 µM
Summary of the method: as §1

[25] = compound: C[C@@H]1COCCN1C2=NC(=NC(=C2)C3(CC3)[S@](=N)(=O)C)C4=C5C=CNC5=NC=C4 [AZD6738]; details: max 10 µM
Summary of the method: as §1

[26] = compound: Cc1c2c(nn1C)CSCc1cc(n(C)n1)CSc1cc(c3ccccc3c1)OCCCc1c(C(=O)O)n(C)c3c-2c(Cl)ccc13 [AZD5991]; details: max 1 µM
Summary of the method: as §1

[27] = compound: Cc1cc2ncnn2cc1Nc1ncc2c(n1)n(C1CCOCC1)c(=O)n2C [AZD7648]; details: max 10 µM
Summary of the method: as §1

[28] = compound: Cc1nc(-c2cn3c(n2)-c2ccc(-c4cnn(C(C)(C)C(N)=O)c4)cc2OCC3)n(C(C)C)n1 [Taselisib]; details: max 10 µM
Summary of the method: as §1

[29] = compound: Cn1cnc2c(F)c(Nc3ccc(Br)cc3Cl)c(C(=O)NOCCO)cc21 [Selumetinib]; details: max 10 µM
Summary of the method: as §1

[30] = compound: N#Cc1cnc(Nc2cc(NC[C@H]3CNCCO3)c(C(F)(F)F)cn2)cn1 [SRA737]; details: max 10 µM
Summary of the method: as §1

[31] = compound: NC1(c2ccc(-c3nc4ccn5c(=O)[nH]nc5c4cc3-c3ccccc3)cc2)CCC1 [MK-2206]; details: max 10 µM
Summary of the method: as §1

[32] = compound: Nc1ccn([C@@H]2O[C@H](CO)[C@@H](O)C2(F)F)c(=O)n1 [Gemcitabine]; details: max 0.3 µM
Summary of the method: as §1

[33] = compound: O=C(Nc1ccc2[nH]nc(-c3ccncc3)c2c1)[C@@H]1CCN(CC(=O)N2CCN(c3ccc(-c4ncccn4)cc3)CC2)C1; details: max 5 µM
Summary of the method: as §1

[34] = compound: O=C(c1cc(Cc2n[nH]c(=O)c3ccccc23)ccc1F)N1CCN(C(=O)C2CC2)CC1 [Olaparib]; details: max 10 µM
Summary of the method: as §1

[35] = compound: O=c1[nH]cc(F)c(=O)[nH]1 [5-Fluorouracil]; details: max 20 µM
Summary of the method: as §1

Row | Cell Line | IC50, cell viability 72 h [1] [nM] | IC50, cell viability 72 h [2] [nM] | IC50, cell viability 72 h [3] [nM] | IC50, cell viability 72 h [4] [nM] | IC50, cell viability 72 h [5] [nM] | IC50, cell viability 72 h [6] [nM] | IC50, cell viability 72 h [7] [nM] | IC50, cell viability 72 h [8] [nM] | IC50, cell viability 72 h [9] [nM] | IC50, cell viability 72 h [10] [nM] | IC50, cell viability 72 h [11] [nM] | IC50, cell viability 72 h [12] [nM] | IC50, cell viability 72 h [13] [nM] | IC50, cell viability 72 h [14] [nM] | IC50, cell viability 72 h [15] [nM] | IC50, cell viability 72 h [16] [nM] | IC50, cell viability 72 h [17] [nM] | IC50, cell viability 72 h [18] [nM] | IC50, cell viability 72 h [19] [nM] | IC50, cell viability 72 h [20] [nM] | IC50, cell viability 72 h [21] [nM] | IC50, cell viability 72 h [22] [nM] | IC50, cell viability 72 h [23] [nM] | IC50, cell viability 72 h [24] [nM] | IC50, cell viability 72 h [25] [nM] | IC50, cell viability 72 h [26] [nM] | IC50, cell viability 72 h [27] [nM] | IC50, cell viability 72 h [28] [nM] | IC50, cell viability 72 h [29] [nM] | IC50, cell viability 72 h [30] [nM] | IC50, cell viability 72 h [31] [nM] | IC50, cell viability 72 h [32] [nM] | IC50, cell viability 72 h [33] [nM] | IC50, cell viability 72 h [34] [nM] | IC50, cell viability 72 h [35] [nM]
1 | SW1088 (Low Grade Glioma) | > 10000 | 6480 | 2040 | > 1000 | 29.1 | > 10000 | > 300 | > 1000 | 283 | > 1 | > 1000 | > 300 | > 3000 | > 1000 | 807 | > 10000 | > 10000 | 129 | > 1000 | > 1000 | > 10000 | 1740 | > 10000 | > 1000 | 9510 | > 1000 | > 10000 | 4280 | > 10000 | > 10000 | > 10000 | > 300 | > 5000 | > 10000 | > 20000
2 | SW1783 (Low Grade Glioma) | > 10000 | > 10000 | 1410 | > 1000 | 407 | > 10000 | > 300 | > 1000 | > 2000 | > 1 | > 1000 | 45.2 | > 3000 | > 1000 | 8540 | > 10000 | > 10000 | > 1000 | > 1000 | > 1000 | > 10000 | 8000 | > 10000 | > 1000 | > 10000 | > 1000 | > 10000 | 5980 | > 10000 | > 10000 | > 10000 | 121 | > 5000 | > 10000 | > 20000
3 | SW1990 (Pancreatic Carcinoma) | > 10000 | > 10000 | > 3000 | > 1000 | > 3000 | > 10000 | > 300 | > 1000 | > 2000 | > 1 | > 1000 | > 300 | > 3000 | > 1000 | > 10000 | > 10000 | > 10000 | 49.9 | > 1000 | > 1000 | > 10000 | > 10000 | > 10000 | > 1000 | > 10000 | > 1000 | > 10000 | > 10000 | > 10000 | 9750 | > 10000 | > 300 | > 5000 | > 10000 | > 20000
4 | TE-5 (Esophageal Squamous Cell Carcinoma) | > 10000 | > 10000 | > 3000 | > 1000 | 79.8 | > 10000 | > 300 | > 1000 | > 2000 | > 1 | > 1000 | 55.8 | > 3000 | > 1000 | > 10000 | > 10000 | > 10000 | 884 | > 1000 | > 1000 | > 10000 | > 10000 | > 10000 | > 1000 | > 10000 | > 1000 | > 10000 | 2040 | > 10000 | > 10000 | > 10000 | 71.4 | > 5000 | > 10000 | > 20000
5 | U-266 (Plasma Cell Myeloma) | > 10000 | > 10000 | 1030 | 225 | 10.2 | > 10000 | > 300 | > 1000 | > 2000 | > 1 | > 1000 | > 300 | > 3000 | 841 | 9540 | > 10000 | > 10000 | 50.6 | > 1000 | > 1000 | > 10000 | > 10000 | > 10000 | > 1000 | > 10000 | 219 | > 10000 | > 10000 | > 10000 | > 10000 | > 10000 | 131 | 4960 | > 10000 | > 20000

Reference: the supplement of paper PMC11061612
